Results from patent US11725004B2, “(Cyano-dimethyl-methyl)-isoxazoles and -[1,3,4]thiadiazoles” (Centrexion Therapeutics Corporation, priority 2013, dated 2023).
pIC50: −log10 of the molar value.

Target: human CB1R (Homo sapiens (Human), UniProt P21554)
Test: CB1 cAMP (Assay 2): in vitro testing of CB1 potency
Type: cell-based
Settings: CHO cells expressing human CB1R; inhibition of forskolin-stimulated cAMP

human CB1R, sequence (P21554 whole entry): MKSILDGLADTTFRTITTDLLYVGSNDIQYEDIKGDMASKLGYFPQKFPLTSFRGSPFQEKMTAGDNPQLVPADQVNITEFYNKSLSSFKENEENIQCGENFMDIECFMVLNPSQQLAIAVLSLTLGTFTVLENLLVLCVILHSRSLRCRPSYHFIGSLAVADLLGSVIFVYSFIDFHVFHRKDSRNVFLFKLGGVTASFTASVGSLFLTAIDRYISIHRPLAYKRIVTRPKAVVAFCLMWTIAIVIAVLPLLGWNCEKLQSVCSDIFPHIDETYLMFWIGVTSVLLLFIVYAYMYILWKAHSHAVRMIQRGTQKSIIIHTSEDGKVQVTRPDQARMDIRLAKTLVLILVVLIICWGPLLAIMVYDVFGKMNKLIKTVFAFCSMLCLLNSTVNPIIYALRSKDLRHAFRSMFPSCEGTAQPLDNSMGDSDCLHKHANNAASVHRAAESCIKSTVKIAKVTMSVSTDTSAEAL

SMILES	pIC50
COCC(C)(C)c1cc(NC(=O)C(C)(C)S(=O)(=O)C2CCOCC2)on1 [Example 38 in WO2010036630]	4.30
CC(C)(O)c1cc(NC(=O)C(C)(C)S(=O)(=O)C2CCOCC2)on1 [Example 133 WO2010036630]	< 3.70
CN(CC1CCOCC1)C(C)(C)C(=O)Nc1cc(C(C)(C)CO)no1 [Example 7 in WO2010147792]	5.09
CC(C)(CO)c1cc(NC(=O)C(C)(C)S(=O)(=O)CC2CCOCC2)on1 [Example 1 in WO2010036630]	< 4.30
CC(C)(C#N)c1cc(NC(=O)C(C)(C)S(=O)(=O)CCCC(F)(F)F)on1 [Example 1, N-[3-(Cyano-dimethyl-methyl)-isoxazol-5-yl]-2-methyl-2-(4,4,4-trifluoro-butane-1-sulfonyl)-propionamide]	3.98
CN(C1CCN(S(C)(=O)=O)CC1)C(C)(C)C(=O)Nc1cc(C(C)(C)C#N)no1 [Example 5]	5.60
CC(C)(C#N)c1cc(NC(=O)C(C)(C)S(=O)(=O)CC2CCOCC2)on1 [Example 2, N-[3-(Cyano-dimethyl-methyl)-isoxazol-5-yl]-2-methyl-2-(tetrahydro-pyran-4-ylmethanesulfonyl)-propionamide]	< 3.70
COCC(C)(C)c1cc(NC(=O)C(C)(C)N(C)CC2CCOCC2)on1 [Example 46 in WO2010147792]	6.03
CC(C)(O)c1cc(NC(=O)C(C)(C)S(=O)(=O)CCCC(F)(F)F)on1 [Example 134 in WO2010036630]	4.59
CC(C)(CO)c1cc(NC(=O)C(C)(C)S(=O)(=O)CCCC(F)(F)F)on1 [Example 7 in WO2010036630]	4.55
CN(CC1CCOCC1)C(C)(C)C(=O)Nc1nnc(C(C)(C)C#N)s1 [Example 7, N-[5-(Cyano-dimethyl-methyl)-[1,3,4]thiadiazol-2-yl]-2-methyl-2-[methyl-(tetrahydro-pyran-4-ylmethyl)-amino]-propionamide]	< 3.70
CN(CC1CCOCC1)C(C)(C)C(=O)Nc1cc(C(C)(C)C#N)no1 [Example 4]	4.40
CN(C1CCN(S(C)(=O)=O)CC1)C(C)(C)C(=O)Nc1nnc(C(C)(C)C#N)s1 [Example 8]	4.16
CN(C1CCN(S(C)(=O)=O)CC1)C(C)(C)C(=O)Nc1cc(C(C)(C)CO)no1 [Example 47 in WO2010147792]	5.51
CC(C)(C#N)c1cc(NC(=O)C(C)(C)S(=O)(=O)C2CCOCC2)on1 [Example 3]	< 3.70
COCC(C)(C)c1cc(NC(=O)C(C)(C)S(=O)(=O)CC2CCOCC2)on1 [Example 17 in WO2010036630]	5.07
CN(CC1CCOCC1)C(C)(C)C(=O)Nc1nnc(C(C)(C)CO)s1 [Example 30 in WO2010147792]	3.92
CC(C)(CO)c1cc(NC(=O)C(C)(C)S(=O)(=O)C2CCOCC2)on1 [Example 2 in WO2010036630]	3.82
